These are literature values, as cited in patent publication US20060110441A1, “Lyophilized liposome formulations and method” (priority 2004, published 2006).

Converted amounts (≈) assume the structure as drawn.

The conditions of one data set: hydrated lipid.
Consider `CCCCCCCC/C=C\CCCCCCCC(=O)OC[C@H](COP(=O)(O)OCCN)OC(=O)CCCCCCC/C=C\CCCCCCCC` [DOPE, dioleoyl phosphoethanolamine], for which the “Tm, phase transition temperature” value was −16 °C.

Regarding `CCCCCCCC/C=C\CCCCCCCC(=O)OC[C@H](COP(=O)(O)OCC(O)CO)OC(=O)CCCCCCC/C=C\CCCCCCCC` (some centres unmarked) [DOPG, dioleoyl phosphatidylglycerol], the “Tm, phase transition temperature” value is −18 °C.

On to `CCCCCCCCCCCCCCCCCC(=O)OC[C@H](COP(=O)([O-])OCC[N+](C)(C)C)OC(=O)CCCCCCCCCCCCCCCCC` [DSPC, distearoyl phosphatidylcholine], for which the “Tm, phase transition temperature” value is 55 °C.

As to `CCCCCCCC/C=C\CCCCCCCC(=O)O[C@H](COC(=O)CCCCCCCCCCCCCCC)COP(=O)([O-])OCC[N+](C)(C)C` [POPC, palmitoyloleoyl phosphatidylcholine], the “Tm, phase transition temperature” value is −2 °C.

On to `CCCCC/C=C\C/C=C\CCCCCCCC(=O)OC[C@H](COP(=O)(O)OCCN)OC(=O)CCCCCCC/C=C\C/C=C\CCCCC` [dilinoleoyl phosphoethanolamine], for which the “Tm, phase transition temperature” value was −40 °C.

Turning to `CCCCCCCC/C=C\CCCCCCCC(=O)OC[C@H](COP(=O)(O)O)OC(=O)CCCCCCC/C=C\CCCCCCCC` [dioleoyl PA], the “Tm, phase transition temperature” value is −8 °C.

Consider `CCCCCCCC/C=C\CCCCCCCC(=O)OC[C@H](COP(=O)(O)OC[C@H](N)C(=O)O)OC(=O)CCCCCCC/C=C\CCCCCCCC` [dioleoyl PS], for which the “Tm, phase transition temperature” value was −11 °C.

Turning to `CCCCCCCCCCCCCCCCCC(=O)OC[C@H](COP(=O)(O)O)OC(=O)CCCCCCCCCCCCCCCCC` [distereoyl PA], the “Tm, phase transition temperature” value is 75 °C.

`CCCCCCCCCCCCCCCCCC(=O)OC[C@H](COP(=O)(O)OCC(O)CO)OC(=O)CCCCCCCCCCCCCCCCC` (some centres unmarked) [distereoyl PG]: the “Tm, phase transition temperature” value is 55 °C.

Turning to `CCCCCCCCCCCCCCCCCC(=O)OC[C@H](COP(=O)(O)OC[C@H](N)C(=O)O)OC(=O)CCCCCCCCCCCCCCCCC` [distereoyl PS], the “Tm, phase transition temperature” value was 68 °C.

For `CCCCCCCCCCCCCCCCCC(=O)OC[C@H](COP(=O)(O)OCCN)OC(=O)CCCCCCCCCCCCCCCCC` [disteroyl phosphoethanolamine], the “Tm, phase transition temperature” value is 74 °C.

As to `CCCCCCCC/C=C\CCCCCCCC(=O)OC[C@H](COP(=O)([O-])OCC[N+](C)(C)C)OC(=O)CCCCCCCCCCCCCCC` [oleoyl palmitoyl PC, oleolyl palmitoyl phosphatidylcholine], the “Tm, phase transition temperature” value is −9 °C.

As for `CCCCCCCC/C=C\CCCCCCCC(=O)OC[C@H](COP(=O)([O-])OCC[N+](C)(C)C)OC(=O)CCCCCCCCCCCCCCCCC` [oleoyl stearyol PC, oleoyl stearoyl phosphatidylcholine], the “Tm, phase transition temperature” value is 5 to 13 °C.

In the case of `CCCCCCCC/C=C\CCCCCCCC(=O)O[C@H](COC(=O)CCCCCCCCCCCCCCCCC)COP(=O)([O-])OCC[N+](C)(C)C` [stearyol oleoyl PC, stearyoyl oleoyl phosphatidylcholine], the “Tm, phase transition temperature” value is 8 to 13 °C.

On to palmitoyl docosahexaenoyl PC, for which the “Tm, phase transition temperature” value was −27 °C.

The data set is the same for the next values; noted with them: hydrated lipid; listed as palmitoyl oleoyl PC.
In the case of `CCCCCCCC/C=C\CCCCCCCC(=O)O[C@H](COC(=O)CCCCCCCCCCCCCCC)COP(=O)([O-])OCC[N+](C)(C)C` [POPC, palmitoyloleoyl phosphatidylcholine], the “Tm, phase transition temperature” value was −5 to 3 °C.

Details in a further data set: not given
With `Nc1nc(Nc2ccc(S(N)(=O)=O)cc2)nn1C(=O)c1c(F)cccc1F` [1-(2′,6′-difluorobenzoyl)-5-amino-3-(4′-aminosulfonylanilino)-1,2,4-triazole], the “water solubility (in words)” value is listed as “very low water solubility”.

One may read the aqueous solubility as how much of the substance goes into solution per volume. As to `COc1cc([C@@H]2c3cc4c(cc3[C@@H](O[C@@H]3O[C@@H]5CO[C@@H](C)O[C@H]5[C@H](O)[C@H]3O)[C@H]3COC(=O)[C@H]23)OCO4)cc(OC)c1O` [etopside, reference compound], the aqueous solubility is 0.03 mg/mL (≈ 51 µM).

Details in a further data set: not given
This is another data set of the same source.
For orientation: LogP means a log measure of how a compound divides between an organic and an aqueous phase. Take `Nc1nc(Nc2ccc(S(N)(=O)=O)cc2)nn1C(=O)c1c(F)cccc1F` [1-(2′,6′-difluorobenzoyl)-5-amino-3-(4′-aminosulfonylanilino)-1,2,4-triazole]: the LogP entry is given as “around zero”.

For `C[C@H]1C[C@H]2[C@@H]3CCC4=CC(=O)C=C[C@]4(C)[C@@]3(F)[C@@H](O)C[C@]2(C)[C@@]1(O)C(=O)CO` [betamethasone], the LogP is given as 1.9.

Take `CCC/C=C/C=C/C(=O)O[C@H]1/C(=C/C(=O)OC)C[C@H]2C[C@H]([C@@H](C)O)OC(=O)C[C@H](O)C[C@@H]3C[C@H](OC(C)=O)C(C)(C)[C@](O)(C[C@@H]4C/C(=C/C(=O)OC)C[C@H](/C=C/C(C)(C)[C@]1(O)O2)O4)O3` [bryostatin-1]: the LogP is 5.4.

For `CN(C)CC/C=C1/c2ccccc2Sc2ccc(Cl)cc21` [chlorprothixene], the LogP was 6.1.

With `C[C@]12C[C@H](O)[C@H]3[C@@H](CCC4=CC(=O)CC[C@@]43C)[C@@H]1CC[C@@H]2C(=O)CO` [corticosterone], the LogP was 1.8.

On to `CC(=O)O[C@@]12CO[C@@H]1C[C@H](O)[C@@]1(C)C(=O)[C@H](O)C3=C(C)[C@@H](OC(=O)[C@H](O)[C@@H](NC(=O)OC(C)(C)C)c4ccccc4)C[C@@](O)([C@@H](OC(=O)c4ccccc4)[C@H]21)C3(C)C` [docetaxel], for which the LogP is given as 6.6.

Turning to `O=c1[nH]cc(F)c(=O)[nH]1` [fluorouracil], the LogP was −0.8.

On to `CC(=O)O[C@H]1C(=O)[C@@]2(C)[C@H]([C@H](OC(=O)c3ccccc3)[C@]3(O)C[C@H](OC(=O)[C@H](O)[C@@H](NC(=O)c4ccccc4)c4ccccc4)C(C)=C1C3(C)C)[C@]1(OC(C)=O)CO[C@@H]1C[C@@H]2O` [paclitaxel], for which the LogP was 7.4.
